From PubChem BioAssay AID1259407 (Chemical Carcinogenesis Research Information System (CCRIS), 2018) come the findings set out here.

Active and inactive are the calls of the source. The rule behind the calls is not given here.

The subject of the series is CCRIS mutagenicity, Ames/micronucleus/aberration tests. Kind of series: CCRIS mutagenicity studies.
[1] abbreviates: Test System: AMES SALMONELLA TYPHIMURIUM, Strain/Indicator: TA98, Metabolic Activation: NONE, Method: PREINCUBATION
The mark [2] stands for this setting: Test System: AMES SALMONELLA TYPHIMURIUM, Strain/Indicator: TA98, Metabolic Activation: NONE, Method: STANDARD PLATE.
[3] abbreviates: Test System: AMES SALMONELLA TYPHIMURIUM, Strain/Indicator: TA100, Metabolic Activation: NONE, Method: STANDARD PLATE.

Regarding `CC(=O)NNc1ccccc1`, the mutagenic call is, setting by setting: (Test System: AMES SALMONELLA TYPHIMURIUM, Strain/Indicator: TA97, Metabolic Activation: HAMSTER, LIVER, S-9, AROCLOR 1254 (5%), Method: PREINCUBATION) “inactive; negative”; (Test System: AMES SALMONELLA TYPHIMURIUM, Strain/Indicator: TA97, Metabolic Activation: HAMSTER, LIVER, S-9, AROCLOR 1254 (10%), Method: PREINCUBATION) “inactive; negative”; (Test System: AMES SALMONELLA TYPHIMURIUM, Strain/Indicator: TA97, Metabolic Activation: HAMSTER, LIVER, S-9, AROCLOR 1254 (30%), Method: PREINCUBATION) “active; positive”; (Test System: AMES SALMONELLA TYPHIMURIUM, Strain/Indicator: TA97, Metabolic Activation: NONE, Method: PREINCUBATION) “active; positive”; (Test System: AMES SALMONELLA TYPHIMURIUM, Strain/Indicator: TA97, Metabolic Activation: RAT, LIVER, S-9, AROCLOR 1254 (5, 10 OR 30%), Method: PREINCUBATION) “inactive; negative”; (Test System: AMES SALMONELLA TYPHIMURIUM, Strain/Indicator: TA98, Metabolic Activation: HAMSTER, LIVER, S-9, AROCLOR 1254 (5, 10 OR 30%), Method: PREINCUBATION) “inactive; negative”. The mutagenic call is “inactive; negative” under setting [1]; “inactive; negative” (Test System: AMES SALMONELLA TYPHIMURIUM, Strain/Indicator: TA98, Metabolic Activation: RAT, LIVER, S-9, AROCLOR 1254 (5, 10 OR 30%), Method: PREINCUBATION); “inactive; negative” (Test System: AMES SALMONELLA TYPHIMURIUM, Strain/Indicator: TA100, Metabolic Activation: HAMSTER, LIVER, S-9, AROCLOR 1254 (5%), Method: PREINCUBATION); “inactive; negative” (Test System: AMES SALMONELLA TYPHIMURIUM, Strain/Indicator: TA100, Metabolic Activation: HAMSTER, LIVER, S-9, AROCLOR 1254 (10%), Method: PREINCUBATION); “inactive; negative” (Test System: AMES SALMONELLA TYPHIMURIUM, Strain/Indicator: TA100, Metabolic Activation: HAMSTER, LIVER, S-9, AROCLOR 1254 (30%), Method: PREINCUBATION); “inactive; negative” (Test System: AMES SALMONELLA TYPHIMURIUM, Strain/Indicator: TA100, Metabolic Activation: NONE, Method: PREINCUBATION). Also, the mutagenic call is “inactive; negative” (Test System: AMES SALMONELLA TYPHIMURIUM, Strain/Indicator: TA100, Metabolic Activation: RAT, LIVER, S-9, AROCLOR 1254 (5%), Method: PREINCUBATION); “inactive; negative” (Test System: AMES SALMONELLA TYPHIMURIUM, Strain/Indicator: TA100, Metabolic Activation: RAT, LIVER, S-9, AROCLOR 1254 (10%), Method: PREINCUBATION); “inactive; negative” (Test System: AMES SALMONELLA TYPHIMURIUM, Strain/Indicator: TA100, Metabolic Activation: RAT, LIVER, S-9, AROCLOR 1254 (30%), Method: PREINCUBATION); “inactive; negative” (Test System: AMES SALMONELLA TYPHIMURIUM, Strain/Indicator: TA1535, Metabolic Activation: HAMSTER, LIVER, S-9, AROCLOR 1254 (10%), Method: PREINCUBATION); “inactive; negative” (Test System: AMES SALMONELLA TYPHIMURIUM, Strain/Indicator: TA1535, Metabolic Activation: HAMSTER, LIVER, S-9, AROCLOR 1254 (30%), Method: PREINCUBATION); “active; positive” (Test System: AMES SALMONELLA TYPHIMURIUM, Strain/Indicator: TA1535, Metabolic Activation: NONE, Method: PREINCUBATION). For the same compound, the mutagenic call by setting is: (Test System: AMES SALMONELLA TYPHIMURIUM, Strain/Indicator: TA1535, Metabolic Activation: RAT, LIVER, S-9, AROCLOR 1254 (5%), Method: PREINCUBATION) “inactive; negative”; (Test System: AMES SALMONELLA TYPHIMURIUM, Strain/Indicator: TA1535, Metabolic Activation: RAT, LIVER, S-9, AROCLOR 1254 (10%), Method: PREINCUBATION) “inactive; negative”; (Test System: AMES SALMONELLA TYPHIMURIUM, Strain/Indicator: TA1535, Metabolic Activation: RAT, LIVER, S-9, AROCLOR 1254 (30%), Method: PREINCUBATION) “inactive; negative”.
Turning to `Nc1cc2c(cc1[N+](=O)[O-])[nH]c1ccccc12`, the mutagenic call is, setting by setting: under setting [2], “active; positive”; (Test System: AMES SALMONELLA TYPHIMURIUM, Strain/Indicator: TA98, Metabolic Activation: RAT, LIVER, S-9, PHENOBARBITAL, Method: STANDARD PLATE) “active; positive”; under setting [3], “active; positive”; (Test System: AMES SALMONELLA TYPHIMURIUM, Strain/Indicator: TA100, Metabolic Activation: RAT, LIVER, S-9, PHENOBARBITAL, Method: STANDARD PLATE) “active; positive”; (Test System: AMES SALMONELLA TYPHIMURIUM, Strain/Indicator: TA1537, Metabolic Activation: NONE, Method: STANDARD PLATE) “active; positive”; (Test System: AMES SALMONELLA TYPHIMURIUM, Strain/Indicator: TA1537, Metabolic Activation: RAT, LIVER, S-9, PHENOBARBITAL, Method: STANDARD PLATE) “active; positive”. In addition, the mutagenic call by setting is: (Test System: AMES SALMONELLA TYPHIMURIUM, Strain/Indicator: TA1538, Metabolic Activation: NONE, Method: STANDARD PLATE) “active; positive”; (Test System: AMES SALMONELLA TYPHIMURIUM, Strain/Indicator: TA1538, Metabolic Activation: RAT, LIVER, S-9, PHENOBARBITAL, Method: STANDARD PLATE) “active; positive”; (Test System: AMES SALMONELLA TYPHIMURIUM, Strain/Indicator: TA1977, Metabolic Activation: NONE, Method: STANDARD PLATE) “active; positive”; (Test System: AMES SALMONELLA TYPHIMURIUM, Strain/Indicator: TA1977, Metabolic Activation: RAT, LIVER, S-9, PHENOBARBITAL, Method: STANDARD PLATE) “active; positive”.
Consider `C=C(C)C(=O)OCCOC1C=CC2C3CCC(C3)C12` (stereo unspecified), for which the mutagenic call is “inactive; negative” (Test System: CHINESE HAMSTER OVARY, Strain/Indicator: CHO-K1-BH4 (HGPRT), Metabolic Activation: NONE, Method: MONOLAYER) and “active; positive” (Test System: CHINESE HAMSTER OVARY, Strain/Indicator: CHO-K1-BH4 (HGPRT), Metabolic Activation: NONE, Method: SUSPENSION/PLATE).
Consider `COC(=O)C(=Cc1ccc([N+](=O)[O-])o1)[N+](=O)[O-]`, for which the mutagenic call under setting [1] was “active; positive”.
In the case of `COc1ccccc1NC(=O)c1csc([N+](=O)[O-])c1`, the mutagenic call by setting is: under setting [2], “active; positive”; under setting [3], “active; positive”.
